Results reported in paper PMC5423902, “CXCL9-Derived Peptides Differentially Inhibit Neutrophil Migration In Vivo through Interference with Glycosaminoglycan Interactions” (Frontiers in Immunology, 2017).

How the values were obtained:
[1] = system: CXCL8(1-77) binding to heparin; experiment: Competition with CXCL8 for binding to immobilized heparin (ELISA-like); design: species or system human; conditions: heparin-coated plates, CXCL8(1-77) 0-300 nM, 2 h at 37°C; anti-CXCL8 detection, 450 nm; n ≥ 4; Figure 3A
Protocol: (§1) The ability of the COOH-terminal peptides of CXCL9 and CXCL4 to compete for GAG binding with the inflammatory chemokines CXCL8 and CXCL1 was evaluated on heparin-binding plates [BD Biosciences or produced by Jason Whittle (School of Engineering/Future Industries Institute, University of South Australia, Australia)] ([42], [47]). In brief, GAGs (heparin, HS, and CS; Iduron; 25 µg/ml) were coated overnight at room temperature. Dilutions of COOH-terminal CXCL9 or CXCL4 peptide combined with recombinant human CXCL8(1-77) or recombinant murine CXCL1(1-72) (Peprotech, Rocky Hill, NJ, USA) were added in duplicate and incubated for 2 h at 37°C. Subsequently, bound CXCL8 or CXCL1 was detected with biotinylated polyclonal rabbit anti-human CXCL8 or biotinylated polyclonal goat anti-mouse CXCL1 (Peprotech) and horse radish peroxidase-labeled streptavidin. Finally, the peroxidase activity was quantified at 450 nm.
(§2) Figure 3 CXCL9(74-93) competes with CXCL8 for binding to heparin, heparan sulfate (HS), and cellular glycosaminoglycans (GAGs). Competition between CXCL8 and COOH-terminal CXCL9 or CXCL4 peptides for binding to immobilized heparin (A) or HS (B) and to Chinese hamster ovary (CHO) cells (C) was performed. […] Bound CXCL8 was detected with biotinylated anti-human CXCL8 antibodies. (C) Binding of NH2-terminally biotinylated CXCL8(1-77) (300 nM) to CHO cells in the presence or absence of an excess CXCL9 peptide was detected by streptavidin-allophycocyanin and flow cytometry. The mean (± SEM) percentage inhibition of binding of CXCL8(1-77) to heparin, HS or cellular GAGs is indicated on the y-axis (n ≥ 4). Statistical comparison of the different competitors with CXCL9(74–103) was performed using the Mann–Whitney U-test (*p < 0.05).

[2] = Isothermal fluorescence titration (IFT), HS; type: binding; conditions: for affinity for HS: IFT, both COOH-terminal peptides compared
Protocol: (§3) To study the interaction between CXCL9(74-93) and GAGs, titration experiments were performed as described by Gerlza et al. ([46]) using TAMRA-labeled synthetic CXCL9(74-93), TAMRA-labeled synthetic CXCL9(74-103), HS (Iduron BN1, Manchester, UK), low molecular weight heparin (LMWH; Iduron BN5), and chondroitin sulfate (CS; Carbosynth, Compton, UK).

[3] = system: CXCL8(1-77) binding to cellular GAGs on CHO cells; experiment: Competition with biotinylated CXCL8 for binding to CHO cells, flow cytometry; type: cell-based, Chinese hamster; conditions: mean, n ≥ 4, Figure 3C (300 nM CXCL8)
Protocol: (§4) Binding of biotinylated CXCL9(74-103) and CXCL9(74-93) to CHO cells was assessed by flow cytometry as recently described ([42]). Briefly, cells were detached with phosphate-buffered saline (PBS) with 0.02% ethylenediaminetetraacetic acid (EDTA) and incubated with NH2-terminally biotinylated peptides. Subsequently, cells were incubated with streptavidin-allophycocyanin (BD Biosciences, San Jose, CA, USA) and analyzed by flow cytometry (FACSCalibur, BD Biosciences). To confirm inhibition of sulfation of cellular GAGs, part of the cells were stained with a mouse monoclonal anti-human HS antibody (Immunosource, Schilde, Belgium) and a secondary phycoerythrin-labeled goat anti-mouse antibody (BD Biosciences). Finally, cells were analyzed by flow cytometry. Analogously, binding of 100 nM biotinylated CXCL8 in the presence or absence of CXCL9(74-103) or CXCL9(74-93) was compared on CHO cells.
as §2

[4] = system: CXCL1(1-72) binding to heparan sulfate (HS); experiment: Competition with CXCL1 for binding to immobilized HS; design: species or system murine; conditions: n ≥ 3, Figure 6A; for reduction of CXCL1 binding to HS: mean; for maximum inhibition of CXCL1 binding to HS: maximum achieved
Protocol: as §1
(§5) Competition between CXCL1 and COOH-terminal CXCL9 peptides for binding to immobilized heparan sulfate (HS) (A) and chondroitin sulfate (CS) (B) was performed. […] Bound CXCL1 was detected with biotinylated polyclonal goat anti-mouse CXCL1 antibodies. The mean (± SEM) percentage inhibition of CXCL1 binding to GAGs is indicated on the y-axis (n ≥ 3). Statistical comparison of the different competitors with CXCL9(74–103) was performed using the Mann–Whitney U-test.

[5] = Isothermal fluorescence titration (IFT), LMWH; type: binding; conditions: for affinity for LMWH: IFT, both COOH-terminal peptides compared
Protocol: as §3

[6] = Isothermal fluorescence titration (IFT), CS; type: binding; conditions: for Kd: isothermal fluorescence titration, TAMRA-labeled peptide, read-out: affinity (KD) for CS
Protocol: as §3

[7] = system: CXCL1(1-72) binding to chondroitin sulfate (CS); experiment: Competition with CXCL1 for binding to immobilized CS; design: species or system murine; conditions: n ≥ 3, Figure 6B; for maximum inhibition of CXCL1 binding to CS: maximum achieved
Protocol: as §1, §5

[8] = system: cellular GAGs on CHO cells; experiment: Binding of biotinylated peptides to CHO cells (cellular GAGs), flow cytometry; type: cell-based, Chinese hamster; conditions: for binding to CHO cells: NH2-terminally biotinylated peptide, streptavidin-allophycocyanin
Protocol: Chinese hamster ovary (CHO) cells were a gift from M. Parmentier (ULB, Brussels, Belgium) and were cultured in Ham’s F-12 medium (with L-glutamine; Lonza, Belgium) supplemented with 10% fetal calf serum (FCS) and 0.8% G418 (Geneticin®; Life Technologies), as described ([44]). To inhibit sulfation of cellular GAGs, CHO cells were cultured in the presence of 100 mM sodium chlorate (NaClO3) for 24 h as previously described ([42]).
as §4
Figure 2 CXCL9(74-93) interacts with cellular glycosaminoglycans (GAGs). The interaction of the COOH-terminal CXCL9 peptides with Chinese hamster ovary (CHO) cells was assessed by flow cytometric analysis. (A) CHO cells were treated with dilutions of NH2-terminally biotinylated CXCL9(74-103) and CXCL9(74-93), which were detected by streptavidin-allophycocyanin. (B) To ensure that the binding of CXCL9(74-93) was GAG-mediated, CHO cells were treated with sodium chlorate (NaClO3) to reduce the sulfation of GAGs. Binding of biotinylated CXCL9(74-93) to cells, treated or untreated with NaClO3, was detected by streptavidin-allophycocyanin. The mean (+SEM) fluorescence intensity of bound biotinylated CXCL9 peptides to CHO cells is indicated on the y-axis (n ≥ 4). A statistical comparison to evaluate the binding of biotinylated peptides on CHO cells [compared to the corresponding concentration of CXCL9(74-103) (A) or to the binding to cells not treated with NaClO3 (B)] was performed using the Mann–Whitney U-test (*p < 0.05; **p < 0.01).

Kd ([2]; isothermal fluorescence titration, TAMRA-labeled peptide, biphasic binding isotherm, fit of only the initial high-affinity phase) [nM] | reduction of CXCL1 binding to HS ([4]; 10-fold molar excess) [%] | Kd ([5]; isothermal fluorescence titration, TAMRA-labeled peptide, read-out: affinity (KD value) for LMWH) [nM] | amount needed for same reduction of CXCL1 binding to CS relative to CXCL9(74-103) [7] | Substance | molar excess over CXCL8 giving 50% reduction of CXCL8 binding to heparin [1] [fold molar excess] | affinity for HS [2] | inhibition of binding of biotinylated CXCL8 to cellular GAGs ([3]; 30-fold excess of peptide) [%] | inhibition of binding of biotinylated CXCL8 to cellular GAGs ([3]; 100-fold excess of peptide) [%] | maximum inhibition of CXCL1 binding to HS [4] [%] | competition for CXCL1 binding to HS [4] | affinity for LMWH [5] | Kd [6] [nM] | maximum inhibition of CXCL1 binding to CS [7] [%] | binding to CHO cells after reduction of GAG sulfation ([8]; CHO cells treated with 100 mM NaClO3 (24 h) vs untreated, biotinylated peptide, Figure 2B) | affinity to cellular GAGs relative to CXCL9(74-103) ([8]; CHO cells, biotinylated peptides, n ≥ 4, Figure 2A) | binding to CHO cells ([8]; n ≥ 4, Figure 2A) | reduction of CXCL1 binding to HS ([4]; threefold molar excess compared to CXCL1) [%] | relative affinity for CS ([6]; compared to CXCL9(74-93))
1 | 39 | 63 ± 13 | three times more | 74KKKQKNGKKHQKKKVLKVRK93 [CXCL9(74-93), COOH-terminal peptide of CXCL9 lacking the 10 COOH-terminal amino acids of CXCL9(74-103)] | 10 | high and comparable affinity | 31 | 50 | 52 | less potent competitor than CXCL9(74-103) | high and comparable affinity | 296 ± 19 | 52 | significantly reduced | lower affinity to cellular GAGs | dose-dependent binding |  | 
 |  |  |  | 74KKKQKNGKKHQKKKVLKVRKSQRSRQKKTT103 [CXCL9(74-103), COOH-terminal peptide of CXCL9] | 10 | high and comparable affinity | 53 |  | 72 |  | high and comparable affinity | 68 ± 4.6 | 63 |  |  | dose-dependent binding | 43 | about fourfold higher affinity for CS
